The target of experiment [1] is T1, human CCR2 (Homo sapiens, UniProt P41597).
T1 construct: host or cells: Chem-1 cell line
T1 sequence (P41597 1-360 isoform P41597-2): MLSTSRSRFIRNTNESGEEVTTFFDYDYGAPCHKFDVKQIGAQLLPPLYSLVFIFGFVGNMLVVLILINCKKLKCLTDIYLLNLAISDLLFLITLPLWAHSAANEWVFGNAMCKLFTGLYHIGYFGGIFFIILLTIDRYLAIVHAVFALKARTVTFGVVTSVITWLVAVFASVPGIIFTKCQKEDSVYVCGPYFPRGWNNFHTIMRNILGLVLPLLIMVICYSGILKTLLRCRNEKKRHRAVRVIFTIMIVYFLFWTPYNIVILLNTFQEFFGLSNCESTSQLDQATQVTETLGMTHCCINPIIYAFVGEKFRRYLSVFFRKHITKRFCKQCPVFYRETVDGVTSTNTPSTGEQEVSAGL
Briefly: Functional Ca2+ release test (B-1). The format is cell-based. Particulars: Chem-1 cell line transfected with human CCR2; 50% inhibition of the MCP-1 effect, MCP-1 at EC50 (about 5 nM); in some cases means of several determinations. The essentials: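 Inhibition of MCP-1-evoked Ca2+ release was measured over 120 s by fluorescence imaging in Fluo-4-loaded, human CCR2-transfected Chem-1 cells. Compounds, tested in 10-point 1:3.16 series, were added 10 min before agonist at its EC50 (typically about 5 nM). IC50 values were obtained by 4-parameter logistic fitting.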

Experiment [2] addresses T2, murine CCR2 (Mus musculus, UniProt P51683).
T2 construct: host or cells: U2OS β-arrestin cell line
Put plainly: Functional β-arrestin recruiting test with human MCP-1 (B-2a). The format is cell-based. The settings on record: U2OS β-arrestin cell line transfected with murine CCR2; agonist human MCP-1 at EC50 (about 3 nM); in some cases means of several determinations. The protocol: The antagonistic action of test substances on CCR2 was determined in a β-arrestin test. The PathHunter β-arrestin GPCR test system (DiscoveRx Corporation, Ltd.) is a cell-based functional method for detecting binding of β-arrestin to an activated receptor. The molecular basis is a […] complementation measured by the enzymatic conversion of a chemiluminescent substrate. The test cell used was a U2OS β-arrestin cell line transfected with murine CCR2 (93-0543C3, DiscoveRx Corporation, Ltd.).
The test substances were dissolved in dimethyl sulphoxide (DMSO) at a concentration of 10 mM and serially diluted with DMSO in steps of 1:3.16 for a 10-point dose/activity analysis. According to the desired test concentrations, the substances were pre-diluted in Tyrode with 2 mM CaCl2 and 0.05% BSA.
The cells, cultivated in MEM Eagle (supplemented with 10% FCS, 50 U/ml of penicillin, 50 μg/ml of streptomycin, 250 μg/ml of hygromycin and 500 μg/ml of geniticin), were sown at 2000 cells/25 μl in 384 well, μCLEAR/black cell culture plates from Greiner (#781092) and incubated at 37° C. for 24 h. The sowing medium consisted of Opti-MEM (supplemented with 1% FCS, 50 U/ml of penicillin and 50 μg/ml of streptomycin). The cells were pre-incubated for 10 min with 10 μl of the test substances diluted in buffer, and 10 μl of agonist solution [human MCP-1 (PeproTech, #300-04) in Tyrode with 0.05% BSA) were then added. The human MCP-1 was employed at the concentration which corresponds to the EC50 which had been determined in a preliminary test (usually about 3 nM). After 90 min of incubation at 37° C., the solution was removed, and recruitment of β-arrestin to CCR2 was detected with the aid of the PathHunter detection reagent (93-001, DiscoveRx Corporation, Ltd.) according to the instructions of the manufacturer. Luminescence was measured after an incubation time of 60 min using a proprietary luminescence imaging measuring instrument. The molar concentration of the test substance which caused 50% inhibition of the MCP-1 effect (IC50) was determined using a 4-parameter logistic function (Hill function).

T2 sequence (P51683 whole entry): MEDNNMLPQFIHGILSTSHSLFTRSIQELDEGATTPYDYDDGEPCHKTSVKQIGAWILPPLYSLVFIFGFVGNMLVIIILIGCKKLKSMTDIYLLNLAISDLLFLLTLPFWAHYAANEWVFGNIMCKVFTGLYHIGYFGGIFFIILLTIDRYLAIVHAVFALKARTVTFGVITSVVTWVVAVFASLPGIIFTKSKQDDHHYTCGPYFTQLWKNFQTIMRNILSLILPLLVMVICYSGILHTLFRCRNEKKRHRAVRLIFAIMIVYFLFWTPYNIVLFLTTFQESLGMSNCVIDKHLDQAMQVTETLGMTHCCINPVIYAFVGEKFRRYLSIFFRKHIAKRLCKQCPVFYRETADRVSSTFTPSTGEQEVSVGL

Take `CC(C)c1nc(-c2nc(C(F)(F)F)c(Oc3ccc(Cl)c(Cl)c3)c(=O)[nH]2)no1` [Example 80, 5-(3,4-Dichlorophenoxy)-2-[5-(propan-2-yl)-1,2,4-oxadiazol-3-yl]-6-(trifluoromethyl)pyrimidin-4(3H)-one x N,N-diisopropylethylamine]: the half-maximal inhibitory concentration (IC50) in experiment [1] was 0.032 µM; in experiment [2], 0.16 µM.

`COCc1nc(-c2nc(C(F)(F)F)c(Oc3ccc(Cl)c(Cl)c3)c(=O)[nH]2)no1` [Example 81, 5-(3,4-dichlorophenoxy)-2-[5-(methoxymethyl)-1,2,4-oxadiazol-3-yl]-6-(trifluoromethyl)pyrimidin-4(3H)-one x N,N-diisopropylethylamine]: the figures for the 50% inhibitory concentration (IC50) in experiment [1] and in experiment [2] were 0.019 µM and 0.11 µM, respectively.

As for `O=c1[nH]c(-c2noc(C3CC3)n2)nc(C(F)(F)F)c1Oc1ccc(Cl)c(Cl)c1` [Example 82, 2-(5-cyclopropyl-1,2,4-oxadiazol-3-yl)-5-(3,4-dichlorophenoxy)-6-(trifluoromethyl)pyrimidin-4(3H)-one x N,N-diisopropylethylamine], the IC50 came to 0.019 µM in experiment [1] and 0.15 µM in experiment [2].

As for `O=c1[nH]c(-c2noc(C(F)(F)F)n2)nc(C(F)(F)F)c1Oc1ccc(Cl)c(Cl)c1` [Example 84, 5-(3,4-Dichlorophenoxy)-6-(trifluoromethyl)-2-[5-(trifluoromethyl)-1,2,4-oxadiazol-3-yl]pyrimidin-4(3H)-one], the IC50 in experiment [1] is 0.0092 µM; in experiment [2], 0.086 µM.

On to `N=c1[nH]c(-c2nc(C(F)(F)F)c(Oc3ccc(Cl)c(Cl)c3)c(=O)[nH]2)no1` [Example 85, 5-(3,4-Dichlorophenoxy)-2-(5-imino-4,5-dihydro-1,2,4-oxadiazol-3-yl)-6-(trifluoromethyl)pyrimidin-4(3H)-one], for which the half-inhibitory concentration (IC50) was found to be 0.031 µM in experiment [1] and 0.096 µM in experiment [2].

For `O=c1[nH]c(-c2nc(C(F)(F)F)c(Oc3ccc(Cl)c(Cl)c3)c(=O)[nH]2)ns1` [Example 86, 5-(3,4-Dichlorophenoxy)-2-(5-oxo-4,5-dihydro-1,2,4-thiadiazol-3-yl)-6-(trifluoromethyl)pyrimidin-4(3H)-one], the results for the IC50 in experiment [1] and in experiment [2] were 0.0077 µM and 0.1 µM, respectively.

With `CC1(C)NC(c2nc(C(F)(F)F)c(Oc3ccc(Cl)c(C(F)(F)F)c3)c(=O)[nH]2)=NO1` [Example 87, 5-[4-Chloro-3-(trifluoromethyl)phenoxy]-2-(5,5-dimethyl-4,5-dihydro-1,2,4-oxadiazol-3-yl)-6-(trifluoromethyl)pyrimidin-4(3H)-one], the results for the IC50 in experiment [1] and in experiment [2] were 0.014 µM and 0.054 µM, respectively.

Regarding `O=C(O)c1cc(O)n(-c2nc(C(F)(F)F)c(Cc3ccc(Cl)c(Cl)c3)c(=O)[nH]2)n1` [Example 88, 1-[5-(3,4-Dichlorobenzyl)-6-oxo-4-(trifluoromethyl)-1,6-dihydropyrimidin-2-yl]-5-hydroxy-H-pyrazole-3-carboxylic acid], the IC50 in experiment [1] turned out to be 0.018 µM; in experiment [2] it was 6.1 µM.

Regarding `O=c1[nH]nc(Cc2nc(C(F)(F)F)c(Cc3ccc(Cl)c(Cl)c3)c(=O)[nH]2)o1` [Example 89, 5-(3,4-Dichlorobenzyl)-2-[(5-oxo-4,5-dihydro-1,3,4-oxadiazol-2-yl)methyl]-6-(trifluoromethyl)pyrimidin-4(3H)-one], the 50% inhibitory concentration (IC50) is 0.011 µM in experiment [1] and 0.37 µM in experiment [2].

For `O=c1[nH]nc(Cc2nc(C(F)(F)F)c(Cc3ccc(Cl)c(Cl)c3)c(=O)[nH]2)[nH]1` [Example 90, 5-(3,4-Dichlorobenzyl)-2-[(5-oxo-4,5-dihydro-1H-1,2,4-triazol-3-yl)methyl]-6-(trifluoromethyl)pyrimidin-4(3H)-one], the IC50 in experiment [1] turned out to be 0.058 µM; in experiment [2], 0.62 µM.

For `Cc1noc(Cc2nc(C(F)(F)F)c(Cc3ccc(Cl)c(Cl)c3)c(=O)[nH]2)n1` [Example 91, 5-(3,4-Dichlorobenzyl)-2-[(3-methyl-1,2,4-oxadiazol-5-yl)methyl]-6-(trifluoromethyl)pyrimidin-4(3H)-one], the half-maximal inhibitory concentration (IC50) is 0.022 µM in experiment [1] and 0.27 µM in experiment [2].

Regarding `O=c1[nH]c(Cc2ncn[nH]2)nc(C(F)(F)F)c1Cc1ccc(Cl)c(Cl)c1` [Example 92, 5-(3,4-dichlorobenzyl)-2-(1H-1,2,4-triazol-5-ylmethyl)-6-(trifluoromethyl)pyrimidin-4(3H)-one], the IC50 in experiment [1] is 0.057 µM; in experiment [2], 0.22 µM.

As for `O=c1[nH]c(Cc2ccncc2)nc(C(F)(F)F)c1Cc1ccc(Cl)c(Cl)c1` [Example 93, 5-(3,4-dichlorobenzyl)-2-(pyridin-4-ylmethyl)-6-(trifluoromethyl)pyrimidin-4(3H)-one], the results for the IC50 in experiment [1] and in experiment [2] were 0.083 µM and 0.37 µM, respectively.

`O=c1[nH]c(Cc2ccccn2)nc(C(F)(F)F)c1Cc1ccc(Cl)c(Cl)c1` [Example 94, 5-(3,4-dichlorobenzyl)-2-(pyridin-2-ylmethyl)-6-(trifluoromethyl)pyrimidin-4(3H)-one]: the IC50 came out at 0.09 µM in experiment [1] and 0.42 µM in experiment [2].

As to `O=c1[nH]c(Cc2ccno2)nc(C(F)(F)F)c1Cc1ccc(Cl)c(Cl)c1` [Example 96, 5-(3,4-dichlorobenzylylmethyl)-6-(trifluoromethyl)pyrimidin-4(3H)-one], the concentration for half-maximal inhibition (IC50) in experiment [1] was 0.03 µM; in experiment [2], 0.16 µM.

For the compound `O=c1[nH]c(Cc2ccsc2)nc(C(F)(F)F)c1Cc1ccc(Cl)c(Cl)c1` [Example 97, 5-(3,4-dichlorobenzyl)-2-(3-thienylmethyl)-6-(trifluoromethyl)pyrimidin-4(3H)-one], the half-inhibitory concentration (IC50) in experiment [1] was determined as 0.1 µM; in experiment [2] it was 0.49 µM.

With `O=c1[nH]c(Cc2cccnc2)nc(C(F)(F)F)c1Cc1ccc(Cl)c(Cl)c1` [Example 98, 5-(3,4-dichlorobenzyl)-2-(pyridin-3-ylmethyl)-6-(trifluoromethyl)pyrimidin-4(3H)-one], the IC50 in experiment [1] was 0.12 µM; in experiment [2], 0.46 µM.

Regarding `Cc1n[nH]c(Cc2nc(C(F)(F)F)c(Cc3ccc(Cl)c(Cl)c3)c(=O)[nH]2)n1` [Example 99, 5-(3,4-Dichlorobenzyl)-2-[(3-methyl-1H-1,2,4-triazol-5-yl)methyl]-6-(trifluoromethyl)pyrimidin-4(3H)-one], the IC50 in experiment [1] stood at 0.072 µM; in experiment [2], 0.63 µM.

For `COc1cccc(Nc2nc(C(F)(F)F)c(Oc3ccc(Cl)c(C(F)(F)F)c3)c(=O)[nH]2)n1` [Example 100, 5-[4-Chloro-3-(trifluoromethyl)phenoxy]-2-[(6-methoxypyridin-2-yl)amino]-6-(trifluoromethyl)pyrimidin-4(3H)-one], the half-inhibitory concentration (IC50) was found to be 0.065 µM in experiment [1] and 0.92 µM in experiment [2].

As to `COc1cccc(Nc2nc(C(F)(F)F)c(Oc3ccc(Cl)c(Cl)c3)c(=O)[nH]2)n1` [Example 101, 5-(3,4-dichlorophenoxy)-2-[(6-methoxypyridin-2-yl)amino]-6-(trifluoromethyl)pyrimidin-4(3H)-one], the results for the IC50 in experiment [1] and in experiment [2] were 0.43 µM and 11 µM, respectively.

In the case of `COc1cccnc1Nc1nc(C(F)(F)F)c(Oc2ccc(Cl)c(Cl)c2)c(=O)[nH]1` [Example 102, 5-(3,4-dichlorophenoxy)-2-[(3-methoxypyridin-2-yl)amino]-6-(trifluoromethyl)pyrimidin-4(3H)-one], the values for the concentration for half-maximal inhibition (IC50) in experiment [1] and in experiment [2] were 0.15 µM and 0.26 µM, respectively.

Consider `COc1cccnc1Nc1nc(C(F)(F)F)c(Oc2ccc(Cl)c(C(F)(F)F)c2)c(=O)[nH]1` [Example 103, 5-[4-chloro-3-(trifluoromethyl)phenoxy]-2-[(3-methoxypyridin-2-yl)amino]-6-(trifluoromethyl)pyrimidin-4(3H)-one], for which the IC50 in experiment [1] stood at 0.05 µM; in experiment [2], 0.37 µM.

The values above are taken from US20160237059A1, “HETEROCYCLIC SUBSTITUTED TRIFLUOROMETHYL PYRIMIDINONES AND THEIR USE” (BAYER PHARMA AKTIENGESELLSCHAFT, priority 2013, published 2016).
